One data set in a line: solubility parameter. It counts as physicochemical. The text has this: The solubility parameter for a substance is a numerical value which indicates the relative solvency behavior of that substance. The concept is discussed and defined in US 2008/0145403.
Latanoprost is very difficult to incorporate into biodegradable polymer matrices, because it is an oil. It has now been discovered, that this problem can be overcome by using a combination of high molecular weight PLA and PLGA polymers and fabricating the implant by melt extrusion or casting in an appropriate solvent. The oily drug substance (DS), i.e. latanoprost, helps plasticize the polymer and allows the production of a homogeneous polymer film. […] It has been determined that dichloromethane is a good solvent for PLA and PLGA, which have solubility parameters of about 21.1 MPa^0.5 and about 22.1 MPa^0.5, respectively. Thus, a solvent having a solubility parameter of from 17.1 to 26.1 MPa^0.5, preferably from 17.6 to 25.6, e.g. 21.1 or 22.1 MPa^0.5 may be used in the practice of this invention. Such solvents may include dichloromethane, isopropanol, ethanol, acetonitrile and octanol.

The conditions of data set [1]: cited from earlier work.

Turning to `ClCCl` [dichloromethane], the solubility parameter in the data set “solubility parameter” is 19.8 MPa^0.5.
Turning to PEG 3350, the solubility parameter entry in “solubility parameter” is “about 20 MPa^0.5”.
Still for that read-out and setting: the same measure for poly(D,L-lactide-co-glycolide) [PLGA]: “about 22.1 MPa^0.5”; for poly(D,L-lactide) [PLA]: “about 21.1 MPa^0.5”.
For `CC(C)OC(=O)CCC/C=C\C[C@@H]1[C@@H](CC[C@@H](O)CCc2ccccc2)[C@H](O)C[C@@H]1O` [Latanoprost], the solubility parameter in “solubility parameter” is 22-24 MPa^0.5. In data set [1] (acetone, ethanol, ethyl acetate, isopropanol, methanol and octanol), the “solubility in organic solvents” value is “freely soluble”. Also, in data set [1] (acetonitrile), the solubility in acetonitrile result is recorded as “very soluble”. The solubility in water result in data set [1] (water) is given as “practically insoluble”.

These data come from patent publication US20120276186A1, “SUSTAINED RELEASE LATANOPROST IMPLANT” (priority 2011, published 2012).
